Assay results: patent US20090074831A1, “LOCAL […] […] OF mTOR INHIBITORS IN COMBINATION WITH PEROXISOME PROLIFERATORS-ACTIVATED RECEPTOR STIMULATORS” (priority 2007, published 2009)

Experiments:
[1] = tested on: human coronary artery smooth muscle cells; experiment: Anti-proliferative activity in synchronized cultured human coronary artery smooth muscle cells stimulated with two percent fetal bovine serum; type: cell-based; conditions: for effect on anti-proliferative rapamycin dose response curves: leftward and upward shift
Text: (§1) The multiple curves represent various concentrations of topotecan ranging from zero to three hundred nanomolar concentrations.
(§2) The multiple curves represent various concentrations of etoposide ranging from zero to eight hundred nanomolar concentrations.
The multiple curves represent various concentrations of Panzem® ranging from zero to 100 micromolar concentrations.

[2] = tested on: cell viability; experiment: cell viability assay; type: cell-based
Text: as §1, §2

[3] = tested on: human coronary artery smooth muscle cell; experiment: in vitro cell culture study, coronary artery smooth muscle cell proliferation (trichostatin A); type: cell-based
Text: FIG. 51 is a graph of the inhibition of coronary artery smooth muscle cells by trichostatin A in a cell culture study.

[4] = tested on: tumor cell lines; conditions: Woo et al., J. Med Chem 2002; cited from earlier work
[5] = tested on: human coronary artery smooth muscle cells; experiment: antiproliferative effects of PX867 on cultured human coronary artery smooth muscle cells; type: cell-based; conditions: PX867 alone, concentration of about 10^−6 (unit not given)
Text: A PI3 kinase inhibitor can affect restinosis when administered by local or systemic delivery alone or in combination with sirolimus. FIGS. 87 and 88 illustrate the antiproliferative effects of PX867 on cultured human coronary artery smooth muscle cells alone (FIG. 87) or in combination with sirolimus (FIG. 88). […] Curve 8702 illustrates the percent inhibition for various concentrations. In FIG. 88, the six curves 8802, 8804, 8806, 8808, 8810 and 8812 represent various concentrations of PX867 with various concentrations of sirolimus. […] More specifically, curve 8812 illustrates the percent inhibition for a 240 nM PX-867 concentration. […] This may be compared to curve 8804 which represents a 15 nM PX-867 concentration. As one can see, the percent inhibition increases as the concentration of sirolimus increases. Accordingly, a potent PI3 kinase inhibitor, such as PX-867, can improve the inhibition of coronary artery smooth muscle cell proliferation either as a stand alone treatment or via combination with another restenotic agent, such as sirolimus.

[6] = in vitro release of sirolimus and cilostazol from dual drug coating; type: physicochemical; conditions: single-layer sirolimus + cilostazol coating of FIG. 83
[7] = tested on: human coronary artery smooth muscle cells; experiment: Anti-proliferative activity in non-synchronized cultured human coronary artery smooth muscle cells stimulated with two percent fetal bovine serum; type: cell-based
Text: The multiple curves represent various concentrations of mycophenolic acid ranging from zero to one thousand nanomolar concentrations.
FIG. 58 illustrates, in graphical format, the anti-proliferative activity of cladribine in non-synchronized cultured human coronary artery smooth muscle cells stimulated with two percent fetal bovine serum.
The multiple curves represent various concentrations of cladribine ranging from zero to nine hundred nanomolar concentrations.

[8] = in vivo release kinetics from rapamycin / cladribine EVA/BMA coating, porcine pharmacokinetics studies; set-up: species or system Yorkshire pigs; conditions: EVA/BMA basecoat with 200 microgram BMA topcoat, Bx Velocity stents
Text: The basecoat is applied to Bx Velocity® stents and implanted into Yorkshire pigs.
The basecoat is applied to BxVelocity® stents and implanted into Yorkshire pigs.

[9] = tested on: human smooth muscle cells; experiment: Inhibition of human vascular cell proliferation with cladribine, PDGF-stimulated smooth muscle cells; type: cell-based
Method: To assess the ability of cladribine to prevent cell proliferation, human smooth muscle or endothelial cells (Clonetics, Walkersville, Md.) were seeded at a density of 2000 cells/cm^2 (approximately 3600 cells/well) into each well of 12-well plates and cultured with 1.5 ml of growth medium containing five percent fetal calf serum (FCS). After twenty-four hours, the growth medium was changed and fresh medium containing 10 ng/ml platelet-derived growth factor AB (PDGF AB; LIFE Technologies), as well as various concentrations of cladribine (0.001-10,000 nM) were added with triplicate wells. Medium was replaced with fresh cladribine-containing medium after three days. On day six, cells were detached by trypsinization to yield a cell suspension, lightly centrifuged to pellet and then counted manually using a Neubauer hemocytometer system. Cell viability was assessed by trypan blue exclusion.

[10] = tested on: human coronary artery smooth muscle cell; conditions: concentrations up to 30,000.00 nanomolar (6.6 to 30,000.00 nanomolar tested)
Text: In vitro cytotoxicity tests or assays may be utilized to determine if drugs, agents and/or compounds are potentially toxic and the level of toxicity. Essentially, in vitro cytotoxicity assays determine acute necrotic effects by a drug causing direct cellular damage. The idea behind these assays is that toxic chemicals affect basic functions of cells which are common to all cells. […] There are a number of different assays that may be utilized. In the present invention, the cytotoxicity assay utilized is based upon the measurement of cellular metabolic activity. A reduction in metabolic activity is an indication of cellular damage. Tests that can measure metabolic function measure cellular ATP levels or mitochondrial activity via MTS metabolism. FIG. 69 is a graphical representation of the results of an MTS assay of Panzem®.

[11] = in vivo release kinetics from rapamycin / mycophenolic acid EVA/BMA coating, porcine pharmacokinetics studies; conditions: EVA/BMA basecoat, 180 micrograms each drug, BMA topcoat 0, 100 or 200 micrograms

Compound: COc1cc([C@@H]2c3cc4c(cc3[C@@H](O[C@@H]3O[C@@H]5CO[C@@H](C)O[C@H]5[C@H](O)[C@H]3O)[C@H]3COC(=O)[C@H]23)OCO4)cc(OC)c1O [etoposide]
- effect on anti-proliferative rapamycin dose response curves ([1]; etoposide zero to eight hundred nanomolar added to rapamycin): potentiate the anti-proliferative activity of rapamycin
- cytotoxicity ([2]; concentrations up to ten micromolar): non-cytotoxic

Compound: CC(/C=C/C(=O)NO)=C\[C@@H](C)C(=O)c1ccc(N(C)C)cc1 [trichostatin A]
- inhibition of human coronary artery smooth muscle cell proliferation [3]: completely inhibit human coronary artery smooth muscle cell proliferation
- IC50 ([3]; read-out: anti-proliferative IC50): ~6 nM
- anti-proliferative IC50's [4]: low nM range

Compound: COC[C@H]1OC(=O)/C(=C\N2CCCC2)C2=C(O)C(=O)C3=C([C@H](OC(C)=O)C[C@]4(C)C(=O)CC[C@@H]34)[C@]21C [PX867]
- inhibition of coronary artery smooth muscle cell proliferation [5]: one hundred

Compound: O=C1CCc2cc(OCCCCc3nnnn3C3CCCCC3)ccc2N1 [cilostazol, 6[4-(1-cyclohexyl-1H-tetrazol-5-yl)-butoxy]-3,4-dihydro-2-(1H)-quinolinone]
- in vitro release [6]: ~35%

Compound: Nc1nc(Cl)nc2c1ncn2[C@H]1C[C@H](O)[C@@H](CO)O1 [Cladribine, 2-chlorodeoxyadenosine]
- inhibition of human coronary artery smooth muscle cell proliferation ([7]; cladribine alone): completely inhibits human coronary artery smooth muscle cell proliferation
- effect on anti-proliferative rapamycin dose response curves ([7]; cladribine zero to nine hundred nanomolar added to rapamycin, leftward and upward shift): does in fact potentiate the anti-proliferative activity of rapamycin
- in vivo elution compared with rapamycin [8]: elutes more rapidly than rapamycin
- potency as inhibitor of smooth muscle cells relative to endothelial cells [9]: approximately twice

Compound: COc1cc2c(cc1O)CC[C@@H]1[C@@H]2CC[C@]2(C)[C@@H](O)CC[C@@H]12 [Panzem®, 2-methoxyestradiol]
- anti-proliferative activity ([1]; Panzem alone): extremely effective inhibitor of human coronary artery smooth muscle cell proliferation in vitro
- effect on percent inhibition by rapamycin ([1]; Panzem zero to 100 micromolar added to rapamycin): increases the percent of inhibition of rapamycin alone
- cytotoxicity (MTS assay), cell survival [10]: do not reduce human coronary artery smooth muscle cell survival

Compound: CC[C@@]1(O)C(=O)OCc2c1cc1n(c2=O)Cc2cc3c(CN(C)C)c(O)ccc3nc2-1 [topotecan]
- effect on anti-proliferative rapamycin dose response curves ([1]; topotecan zero to three hundred nanomolar added to rapamycin): does in fact potentiate the anti-proliferative activity of rapamycin
- cytotoxicity ([2]; concentrations up to one micromolar): non-cytotoxic

Compound: COc1c(C)c2c(c(O)c1C/C=C(\C)CCC(=O)O)C(=O)OC2 [mycophenolic acid]
- effect on anti-proliferative rapamycin dose response curve ([7]; mycophenolic acid zero to one thousand nanomolar added to rapamycin, leftward and upward shift): potentiates the anti-proliferative activity of rapamycin
- in vivo elution compared with rapamycin [11]: elutes more completely over a shorter duration than the rapamycin
